Laboratory results reported in paper PMC5869712 (Scientific Reports, 2018).

Legend:
EGFR = target: T1, EGFR (Homo sapiens, UniProt P00533); assay: Cys-containing kinase family panel (EurofinsCerep); assay type: biochemical
T1 construct: EurofinsCerep (contract assay service)
Source text: (§1) The assay protocol guides are commercially available from ChemPartner.

TEC = target: T2, TEC (Homo sapiens, UniProt P42680); assay: Cys-containing kinase family panel (EurofinsCerep); assay type: biochemical
T2 construct: EurofinsCerep (contract assay service)
T2 sequence (P42680 whole entry): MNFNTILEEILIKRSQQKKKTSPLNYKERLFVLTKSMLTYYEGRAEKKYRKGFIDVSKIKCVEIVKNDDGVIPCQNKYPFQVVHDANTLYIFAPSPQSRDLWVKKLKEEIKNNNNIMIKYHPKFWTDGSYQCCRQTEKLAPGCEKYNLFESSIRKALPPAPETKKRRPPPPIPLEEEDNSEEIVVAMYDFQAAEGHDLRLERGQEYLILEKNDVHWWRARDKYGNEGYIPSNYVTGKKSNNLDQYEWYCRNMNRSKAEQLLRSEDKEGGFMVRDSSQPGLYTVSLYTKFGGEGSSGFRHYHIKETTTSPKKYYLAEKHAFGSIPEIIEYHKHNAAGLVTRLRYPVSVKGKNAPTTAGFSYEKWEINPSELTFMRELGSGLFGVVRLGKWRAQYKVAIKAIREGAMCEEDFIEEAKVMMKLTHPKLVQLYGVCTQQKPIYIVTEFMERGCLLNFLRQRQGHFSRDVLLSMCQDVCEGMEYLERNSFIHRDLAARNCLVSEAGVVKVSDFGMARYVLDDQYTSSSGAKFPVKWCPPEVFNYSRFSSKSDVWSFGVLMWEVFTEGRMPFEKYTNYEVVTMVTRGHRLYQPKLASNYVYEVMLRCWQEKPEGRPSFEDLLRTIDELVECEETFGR
Source text: as §1

TXK = target: T3, TXK (Homo sapiens, UniProt P42681); assay: Cys-containing kinase family panel (EurofinsCerep); assay type: biochemical
T3 construct: EurofinsCerep (contract assay service)
T3 sequence (P42681 whole entry): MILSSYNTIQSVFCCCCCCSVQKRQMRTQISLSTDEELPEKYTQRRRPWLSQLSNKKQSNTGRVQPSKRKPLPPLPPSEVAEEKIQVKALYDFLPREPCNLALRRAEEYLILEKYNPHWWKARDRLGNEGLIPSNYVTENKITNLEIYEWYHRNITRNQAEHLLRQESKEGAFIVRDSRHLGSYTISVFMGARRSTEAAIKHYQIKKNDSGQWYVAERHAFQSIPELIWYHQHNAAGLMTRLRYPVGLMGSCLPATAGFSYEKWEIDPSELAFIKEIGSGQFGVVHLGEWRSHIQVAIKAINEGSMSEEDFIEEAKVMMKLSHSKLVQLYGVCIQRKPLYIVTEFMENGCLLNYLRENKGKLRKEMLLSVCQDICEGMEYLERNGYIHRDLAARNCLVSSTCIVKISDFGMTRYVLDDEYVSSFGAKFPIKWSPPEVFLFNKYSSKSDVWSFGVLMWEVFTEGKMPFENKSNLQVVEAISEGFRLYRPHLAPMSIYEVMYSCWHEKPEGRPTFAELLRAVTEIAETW
Source text: as §1

IKKε = target: T4, IKKε (Homo sapiens, UniProt Q14164); assay: Eurofins Kinase Profiler panel; assay type: biochemical; details: read-out: % inhibition (1μM), DMSO control=100%, lower=stronger
T4 construct: purchased Eurofins KinaseProfiler (Eurofins Pharma Discovery Services UK, Dundee); JAK3 also ChemPartner

JNK2α2 = target: T5, JNK2α2 (Homo sapiens, UniProt P45984); assay: Eurofins Kinase Profiler panel; assay type: biochemical; details: read-out: % inhibition (1μM), DMSO control=100%, lower=stronger
T5 construct: purchased Eurofins KinaseProfiler (Eurofins Pharma Discovery Services UK, Dundee); JAK3 also ChemPartner
T5 sequence (P45984 whole entry): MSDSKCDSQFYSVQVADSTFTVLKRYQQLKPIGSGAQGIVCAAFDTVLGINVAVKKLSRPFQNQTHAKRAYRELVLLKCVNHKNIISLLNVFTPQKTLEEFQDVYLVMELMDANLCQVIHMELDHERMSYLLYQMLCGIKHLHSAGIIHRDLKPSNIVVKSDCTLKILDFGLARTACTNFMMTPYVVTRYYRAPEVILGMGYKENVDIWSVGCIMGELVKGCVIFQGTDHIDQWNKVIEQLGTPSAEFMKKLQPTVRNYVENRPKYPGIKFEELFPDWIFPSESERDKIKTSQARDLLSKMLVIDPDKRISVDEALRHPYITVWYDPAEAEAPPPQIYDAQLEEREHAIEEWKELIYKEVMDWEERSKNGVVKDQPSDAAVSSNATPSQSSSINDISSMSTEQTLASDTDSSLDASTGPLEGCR

Lyn = target: T6, Lyn (Homo sapiens, UniProt P07948); assay: Eurofins Kinase Profiler panel; assay type: biochemical; details: read-out: % inhibition (1μM), DMSO control=100%, lower=stronger
T6 construct: purchased Eurofins KinaseProfiler (Eurofins Pharma Discovery Services UK, Dundee); JAK3 also ChemPartner

CK1 = assay: Eurofins Kinase Profiler panel; assay type: biochemical; details: read-out: % inhibition (1μM), DMSO control=100%, lower=stronger
Source text: as §1

CaMKK2 = target: T7, CaMKK2 (Homo sapiens, UniProt Q96RR4); assay: Eurofins Kinase Profiler panel; assay type: biochemical; details: read-out: % inhibition (1μM), DMSO control=100%, lower=stronger
T7 construct: purchased Eurofins KinaseProfiler (Eurofins Pharma Discovery Services UK, Dundee); JAK3 also ChemPartner
Source text: as §1

DYRK1B = target: T8, DYRK1B (Homo sapiens, UniProt Q9Y463); assay: Eurofins Kinase Profiler panel; assay type: biochemical; details: read-out: % inhibition (1μM), DMSO control=100%, lower=stronger
T8 construct: Eurofins Pharma Discovery Services UK Limited (Kinase Profiler service)
Source text: as §1

GSK3α = target: T9, GSK3α (Homo sapiens, UniProt P49840); assay: Eurofins Kinase Profiler panel; assay type: biochemical; details: read-out: % inhibition (1μM), DMSO control=100%, lower=stronger
T9 construct: purchased Eurofins KinaseProfiler (Eurofins Pharma Discovery Services UK, Dundee); JAK3 also ChemPartner
T9 sequence (P49840 whole entry): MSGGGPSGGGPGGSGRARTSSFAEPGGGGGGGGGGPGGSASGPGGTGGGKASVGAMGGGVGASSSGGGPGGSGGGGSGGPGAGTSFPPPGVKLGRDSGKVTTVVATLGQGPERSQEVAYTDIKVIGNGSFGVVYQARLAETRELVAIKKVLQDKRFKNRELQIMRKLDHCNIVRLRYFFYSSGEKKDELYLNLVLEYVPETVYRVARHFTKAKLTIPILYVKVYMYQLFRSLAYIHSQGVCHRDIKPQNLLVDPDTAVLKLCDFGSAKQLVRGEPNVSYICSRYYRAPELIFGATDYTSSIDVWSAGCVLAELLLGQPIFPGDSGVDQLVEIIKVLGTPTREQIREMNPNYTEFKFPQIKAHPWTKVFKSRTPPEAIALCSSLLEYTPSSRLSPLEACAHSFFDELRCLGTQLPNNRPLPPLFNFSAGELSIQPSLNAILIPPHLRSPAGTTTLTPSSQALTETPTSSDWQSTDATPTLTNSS
Source text: as §1

MSK1 = target: T10, MSK1 (Homo sapiens, UniProt O75582); assay: Eurofins Kinase Profiler panel; assay type: biochemical; details: read-out: % inhibition (1μM), DMSO control=100%, lower=stronger
T10 construct: purchased Eurofins Pharma Discovery Services UK Limited (Kinase Profiler screening platform)
T10 sequence (O75582 whole entry): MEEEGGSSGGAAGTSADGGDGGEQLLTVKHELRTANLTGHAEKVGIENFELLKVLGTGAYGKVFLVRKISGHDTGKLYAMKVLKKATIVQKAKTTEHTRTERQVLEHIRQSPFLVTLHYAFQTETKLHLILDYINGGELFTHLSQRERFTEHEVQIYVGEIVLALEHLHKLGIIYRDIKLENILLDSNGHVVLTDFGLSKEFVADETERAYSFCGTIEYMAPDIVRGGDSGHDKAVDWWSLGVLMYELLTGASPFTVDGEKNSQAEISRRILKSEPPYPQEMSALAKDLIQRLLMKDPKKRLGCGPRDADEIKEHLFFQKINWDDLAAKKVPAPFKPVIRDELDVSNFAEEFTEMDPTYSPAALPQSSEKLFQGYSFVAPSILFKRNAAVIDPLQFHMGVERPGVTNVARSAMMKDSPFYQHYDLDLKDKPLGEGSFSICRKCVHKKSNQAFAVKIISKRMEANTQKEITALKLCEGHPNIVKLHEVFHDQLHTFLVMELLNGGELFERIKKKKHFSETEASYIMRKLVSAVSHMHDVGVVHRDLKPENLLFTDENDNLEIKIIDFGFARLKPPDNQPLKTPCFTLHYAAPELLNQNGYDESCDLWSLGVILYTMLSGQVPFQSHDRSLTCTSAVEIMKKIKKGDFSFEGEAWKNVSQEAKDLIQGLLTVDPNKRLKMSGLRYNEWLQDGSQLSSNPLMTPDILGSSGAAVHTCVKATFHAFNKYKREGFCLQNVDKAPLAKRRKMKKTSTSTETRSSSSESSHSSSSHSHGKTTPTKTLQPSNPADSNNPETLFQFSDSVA
Source text: as §1

NEK2 = target: T11, NEK2 (Homo sapiens, UniProt P51955); assay: Eurofins Kinase Profiler panel; assay type: biochemical; details: read-out: % inhibition (1μM), DMSO control=100%, lower=stronger
T11 construct: purchased Eurofins Pharma Discovery Services UK Limited (Kinase Profiler screening platform)
Source text: as §1

PAK4 = target: T12, PAK4 (Homo sapiens, UniProt O96013); assay: Eurofins Kinase Profiler panel; assay type: biochemical; details: read-out: % inhibition (1μM), DMSO control=100%, lower=stronger
T12 construct: purchased Eurofins Pharma Discovery Services UK Limited (Kinase Profiler screening platform)
Source text: as §1

PRK2 = target: T13, PRK2 (Homo sapiens, UniProt Q16513); assay: Eurofins Kinase Profiler panel; assay type: biochemical; details: read-out: % inhibition (1μM), DMSO control=100%, lower=stronger
T13 construct: purchased Eurofins KinaseProfiler (Eurofins Pharma Discovery Services UK, Dundee); JAK3 also ChemPartner
Source text: as §1

Pim-1 = target: T14, Pim-1 (Homo sapiens, UniProt P11309); assay: Eurofins Kinase Profiler panel; assay type: biochemical; details: read-out: % inhibition (1μM), DMSO control=100%, lower=stronger
T14 construct: purchased Eurofins Pharma Discovery Services UK Limited (Kinase Profiler screening platform)
Source text: as §1

ROCK-I = target: T15, ROCK-I (Homo sapiens, UniProt Q13464); assay: Eurofins Kinase Profiler panel; assay type: biochemical; details: read-out: % inhibition (1μM), DMSO control=100%, lower=stronger
T15 construct: purchased Eurofins KinaseProfiler (Eurofins Pharma Discovery Services UK, Dundee); JAK3 also ChemPartner
Source text: as §1

Ret = target: T16, Ret (Homo sapiens, UniProt P07949); assay: Eurofins Kinase Profiler panel; assay type: biochemical; details: read-out: % inhibition (1μM), DMSO control=100%, lower=stronger
T16 construct: purchased Eurofins KinaseProfiler (Eurofins Pharma Discovery Services UK, Dundee); JAK3 also ChemPartner
T16 sequence (P07949 29-1114): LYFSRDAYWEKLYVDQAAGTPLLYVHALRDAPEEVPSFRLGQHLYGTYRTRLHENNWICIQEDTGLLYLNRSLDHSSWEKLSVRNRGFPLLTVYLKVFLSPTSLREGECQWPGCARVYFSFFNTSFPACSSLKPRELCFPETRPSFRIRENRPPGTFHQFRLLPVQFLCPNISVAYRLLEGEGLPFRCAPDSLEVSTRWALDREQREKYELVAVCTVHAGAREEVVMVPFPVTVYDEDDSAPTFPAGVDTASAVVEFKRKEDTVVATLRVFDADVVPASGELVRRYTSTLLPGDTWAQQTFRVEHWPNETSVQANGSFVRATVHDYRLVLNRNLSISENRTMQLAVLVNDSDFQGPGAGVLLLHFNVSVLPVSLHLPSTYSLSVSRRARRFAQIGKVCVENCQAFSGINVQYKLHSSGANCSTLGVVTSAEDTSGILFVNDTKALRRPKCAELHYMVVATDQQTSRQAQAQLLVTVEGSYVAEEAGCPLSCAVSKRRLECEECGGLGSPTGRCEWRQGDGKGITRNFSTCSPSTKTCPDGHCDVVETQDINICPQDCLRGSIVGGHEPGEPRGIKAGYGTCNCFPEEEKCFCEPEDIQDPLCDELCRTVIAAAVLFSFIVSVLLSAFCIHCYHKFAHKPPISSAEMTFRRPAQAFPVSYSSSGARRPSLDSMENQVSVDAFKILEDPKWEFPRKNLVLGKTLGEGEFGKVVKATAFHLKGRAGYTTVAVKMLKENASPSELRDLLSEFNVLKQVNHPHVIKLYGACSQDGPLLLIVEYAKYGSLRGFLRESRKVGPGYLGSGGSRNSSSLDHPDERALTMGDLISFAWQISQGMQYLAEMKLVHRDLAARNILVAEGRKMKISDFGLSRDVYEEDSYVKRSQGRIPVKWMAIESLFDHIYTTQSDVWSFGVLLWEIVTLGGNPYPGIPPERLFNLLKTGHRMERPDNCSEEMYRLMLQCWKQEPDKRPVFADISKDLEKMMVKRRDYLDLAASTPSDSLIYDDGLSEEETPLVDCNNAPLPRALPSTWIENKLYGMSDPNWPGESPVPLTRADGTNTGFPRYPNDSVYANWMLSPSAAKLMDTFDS
Source text: as §1

SAPK4 = target: T17, SAPK4 (Homo sapiens, UniProt O15264); assay: Eurofins Kinase Profiler panel; assay type: biochemical; details: read-out: % inhibition (1μM), DMSO control=100%, lower=stronger
T17 construct: purchased Eurofins KinaseProfiler (Eurofins Pharma Discovery Services UK, Dundee); JAK3 also ChemPartner
Source text: as §1

Src = target: T18, Src (Homo sapiens, UniProt P12931); assay: Eurofins Kinase Profiler panel; assay type: biochemical; details: read-out: % inhibition (1μM), DMSO control=100%, lower=stronger
T18 construct: purchased Eurofins KinaseProfiler (Eurofins Pharma Discovery Services UK, Dundee); JAK3 also ChemPartner
Source text: as §1

TAO1 = target: T19, TAO1 (Homo sapiens, UniProt Q7L7X3); assay: Eurofins Kinase Profiler panel; assay type: biochemical; details: read-out: % inhibition (1μM), DMSO control=100%, lower=stronger
T19 construct: Eurofins Pharma Discovery Services UK Limited (Kinase Profiler service)
Source text: as §1

TrkA = target: T20, TrkA (Homo sapiens, UniProt P04629); assay: Eurofins Kinase Profiler panel; assay type: biochemical; details: read-out: % inhibition (1μM), DMSO control=100%, lower=stronger
T20 construct: purchased Eurofins Pharma Discovery Services UK Limited (Kinase Profiler screening platform)
Source text: as §1

Wee1 = target: T21, Wee1 (Homo sapiens, UniProt P30291); assay: Eurofins Kinase Profiler panel; assay type: biochemical; details: read-out: % inhibition (1μM), DMSO control=100%, lower=stronger
T21 construct: purchased Eurofins Pharma Discovery Services UK Limited (Kinase Profiler screening platform)
Source text: as §1

ZIPK = target: T22, ZIPK (Homo sapiens, UniProt O43293); assay: Eurofins Kinase Profiler panel; assay type: biochemical; details: read-out: % inhibition (1μM), DMSO control=100%, lower=stronger
T22 construct: purchased Eurofins Pharma Discovery Services UK Limited (Kinase Profiler screening platform)
T22 sequence (O43293 whole entry): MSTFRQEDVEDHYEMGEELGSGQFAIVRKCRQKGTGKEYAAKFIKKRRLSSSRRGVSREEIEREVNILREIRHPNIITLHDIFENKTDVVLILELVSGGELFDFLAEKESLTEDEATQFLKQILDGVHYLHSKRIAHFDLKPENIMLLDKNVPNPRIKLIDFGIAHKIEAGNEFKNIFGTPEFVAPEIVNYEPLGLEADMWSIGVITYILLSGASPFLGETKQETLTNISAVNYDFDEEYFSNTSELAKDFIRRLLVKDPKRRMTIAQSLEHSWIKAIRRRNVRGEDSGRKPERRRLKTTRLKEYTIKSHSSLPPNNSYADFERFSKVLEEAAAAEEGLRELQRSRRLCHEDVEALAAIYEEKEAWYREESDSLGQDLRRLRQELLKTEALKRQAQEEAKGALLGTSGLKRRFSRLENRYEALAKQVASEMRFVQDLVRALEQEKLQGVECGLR
Source text: as §1

MKK4 = target: T23, MKK4 (Mus musculus, UniProt P47809); assay: Eurofins Kinase Profiler panel; assay type: biochemical; details: read-out: % inhibition (1μM), DMSO control=100%, lower=stronger
T23 construct: purchased Eurofins KinaseProfiler (Eurofins Pharma Discovery Services UK, Dundee); JAK3 also ChemPartner
T23 sequence (P47809 2-397 limits assumed): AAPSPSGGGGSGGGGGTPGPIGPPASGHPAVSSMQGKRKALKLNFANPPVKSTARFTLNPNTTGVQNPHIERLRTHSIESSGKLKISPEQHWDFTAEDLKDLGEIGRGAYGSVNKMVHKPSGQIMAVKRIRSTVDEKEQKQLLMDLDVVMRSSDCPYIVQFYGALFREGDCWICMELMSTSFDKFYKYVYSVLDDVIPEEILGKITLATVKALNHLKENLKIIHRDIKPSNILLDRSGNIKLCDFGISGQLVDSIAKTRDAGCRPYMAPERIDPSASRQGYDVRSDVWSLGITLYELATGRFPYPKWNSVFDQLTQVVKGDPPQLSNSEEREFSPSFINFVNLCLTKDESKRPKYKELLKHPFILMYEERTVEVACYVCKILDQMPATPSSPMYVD

FAK = target: T24, FAK (Homo sapiens, UniProt Q05397); assay: Eurofins Kinase Profiler panel; assay type: biochemical; details: read-out: % inhibition (1μM), DMSO control=100%, lower=stronger
T24 construct: Eurofins Pharma Discovery Services UK Limited (Kinase Profiler service)

[1] = system: serum TNF-α, IL-1β and IL-6 in CIA mice; assay: Serum cytokines of CIA mice by ELISA; assay type: in vivo, mouse
[2] = system: Th1, Th17 and Treg cells of CIA mice; assay: Flow cytometry analysis of Th1, Th17 and Treg in CIA mice; assay type: in vivo, mouse; details: 100 mg/kg
Description: On day 32 after the indicated treatments, mice were sacrificed to obtain cells from the spleen. Then, the cells were incubated with the corresponding antibodies to detect Th1, Th17 cells and Treg cells. CD4^+ IFN-γ^+ represents Th1 cells, CD4^+ IL-17^+ represents Th17 cells in […]. CD4^+ Foxp3^+ represents Treg cells. The analyses of cells were performed as described above.

BALB/c mice = assay: Acute oral toxicity and haematology analysis in BALB/c mice; details: for HCT / HGB / LY / MCH / MCHC / MCV / MO / PLT / RBC / WBC: Balb/c mice
[3] = system: IL-3-induced JAK/STAT5 phosphorylation in TF-1 cells (JAK2); assay: STAT5 phosphorylation induced by IL-3 in TF-1 cells, Western blot
[4] = system: IFN-α2b-induced JAK/STAT1 phosphorylation in U2OS cells (JAK1); assay: STAT1 phosphorylation induced by IFN-α2b in U2OS cells, Western blot

C=CC(=O)N[C@@H]1CCCN(c2ncnc3[nH]ccc23)C1 [RB1]
inhibition at 1 µM (EGFR): 11.2%
inhibition at 1 µM (TEC): 14%
inhibition at 1 µM (TXK): 7.25%
activity at 1 µM (IKKε): 97%
activity at 1 µM (JNK2α2): 109%
activity at 1 µM (Lyn): 118%
activity (CK1): 82%
activity at 1 µM (CaMKK2): 101%
activity at 1 µM (DYRK1B): 86%
activity at 1 µM (GSK3α): 82%
activity at 1 µM (MSK1): 74%
activity at 1 µM (NEK2): 99%
activity at 1 µM (PAK4): 81%
activity at 1 µM (PRK2): 79%
activity at 1 µM (Pim-1): 62%
activity at 1 µM (ROCK-I): 88%
activity at 1 µM (Ret): 86%
activity at 1 µM (SAPK4): 95%
activity at 1 µM (Src): 102%
activity at 1 µM (TAO1): 70%
activity at 1 µM (TrkA): 46%
activity at 1 µM (Wee1): 90%
activity at 1 µM (ZIPK): 107%
activity at 1 µM (MKK4): 114%
activity at 1 µM (FAK): 72%
serum TNF-α, IL-1β and IL-6 levels [1]: significantly reduced in a dose-dependent manner
percentage of Treg cells ([2]; model 0.55%): 1.13%
Th1 cells ([2]; model 1.12%, normal […]): 0.49%
percentage of Th17 cells ([2]; model 2.13%): 0.80%
acute haematological toxicity in WBC and lymphocyte counts (BALB/c mice; BALB/c mice, oral, even at 1000 mg/kg, after 14 days): did not induce significant acute haematological toxicity
acute oral toxicity, adverse effects (BALB/c mice; BALB/c mice, single doses, 14-days recovery time): no obvious adverse results
HCT (BALB/c mice; oral 100 mg/kg): 46.94 ± 1.80%
HGB (BALB/c mice; oral 100 mg/kg): 168.12 ± 7.36 g/L
LY (BALB/c mice; oral 100 mg/kg): 65.93 ± 3.09%
MCH (BALB/c mice; oral 100 mg/kg): 16.13 ± 0.12 pg
MCHC (BALB/c mice; oral 100 mg/kg): 369.77 ± 2.01 g/L
MCV (BALB/c mice; oral 100 mg/kg): 48.98 ± 0.22 fL
MO (BALB/c mice; oral 100 mg/kg): 6.99 ± 1.26%
PLT (BALB/c mice; oral 100 mg/kg): 385.34 ± 43.61 1×109/L
RBC (BALB/c mice; oral 100 mg/kg): 9.20 ± 0.31 1×1012/L
WBC (BALB/c mice; oral 100 mg/kg): 9.12 ± 0.98 1×109/L
HCT (BALB/c mice; oral 300 mg/kg): 44.82 ± 1.77%
HGB (BALB/c mice; oral 300 mg/kg): 158.49 ± 6.40 g/L
LY (BALB/c mice; oral 300 mg/kg): 75.04 ± 3.17%
MCH (BALB/c mice; oral 300 mg/kg): 15.98 ± 0.22 pg
MCHC (BALB/c mice; oral 300 mg/kg): 360.54 ± 3.84 g/L
MCV (BALB/c mice; oral 300 mg/kg): 50.03 ± 0.08 fL
MO (BALB/c mice; oral 300 mg/kg): 6.50 ± 0.86%
PLT (BALB/c mice; oral 300 mg/kg): 360.12 ± 33.74 1×109/L
RBC (BALB/c mice; oral 300 mg/kg): 9.90 ± 0.22 1×1012/L
WBC (BALB/c mice; oral 300 mg/kg): 8.64 ± 1.05 1×109/L
HCT (BALB/c mice; oral 1000 mg/kg): 43.53 ± 1.68%
HGB (BALB/c mice; oral 1000 mg/kg): 150.33 ± 6.94 g/L
LY (BALB/c mice; oral 1000 mg/kg): 69.43 ± 1.88%
MCH (BALB/c mice; oral 1000 mg/kg): 16.08 ± 0.09 pg
MCHC (BALB/c mice; oral 1000 mg/kg): 355.00 ± 2.16 g/L
MCV (BALB/c mice; oral 1000 mg/kg): 49.82 ± 0.12 fL
MO (BALB/c mice; oral 1000 mg/kg): 8.23 ± 1.08%
PLT (BALB/c mice; oral 1000 mg/kg): 327.67 ± 46.45 1×109/L
RBC (BALB/c mice; oral 1000 mg/kg): 10.44 ± 0.16 1×1012/L
WBC (BALB/c mice; oral 1000 mg/kg): 9.33 ± 1.12 1×109/L
IC50 ([3]; Homo sapiens): > 50 µM
Selectivity JAK2/JAK3 ([3]; IL-3, pSTAT5): > 1000
IC50 ([4]; Homo sapiens, read-out: IC50, STAT and JAK phosphorylation): > 50 µM
Selectivity JAK1/JAK3 ([4]; IFN-α2B, pSTAT1): > 1000
